Results as given in patent publication US11725027B2, “Hypersensitive response elicitor-derived peptides and use thereof” (priority 2016, dated 2023).
Like-named read-outs stand apart in the source and are kept apart here. Marks after values point to notes of the source that are not given here. No end group written: not given here.

Tests used:
[1] = 50° C.; for stability in buffer solutions: 50 mM buffers
Description: Briefly, the stability and resistance to chemical degradation of peptides can be assessed as follows using peptide samples having an initial purity of at least about 80%, at least about 82%, at least about 84%, at least about 86%, at least about 88%, at least about 90%, at least about 92%, at least about 94%, at least about 96%, or at least about 98%. For water stability, the peptide is dissolved directly in de-ionized water. For chemical degradation tests, the peptide is dissolved in an aqueous solution containing 50 mM pH buffer and 0.25% Proxel GXL. Exemplary pH buffers include, without limitation: (i) Citrate pH 5.6; (ii) MES pH 6.0; (iii) MOPS pH 6.5; (iv) imidazole pH 7.5; (v) Citrate pH 7.2; (vi) EDDS, pH 7.3; (vii) EDTA pH 8.0; (viii) sodium phosphate pH 8.0; or (ix) TES pH 8.0. Peptides are first dissolved in the aqueous solution at a concentration of 0.5 mg/ml. The samples are incubated at 50° C. to allow for accelerated degradation. An initial sample of the peptide is removed, diluted 10× with water, and analyzed by reverse-phase HPLC. Briefly, 20 μl of the sample is injected into the solvent flow of an HPLC instrument and analyzed on a C18 HPLC column (YMC ProPack C18, YMC, Japan, or C18 Stablebond, Agilent Technologies, USA) using either a triethylamine phosphate in water/acetonitrile gradient or a 0.1% TFA in water/0.1% TFA in acetonitrile gradient to separate different peptide species. Eluting peptides are monitored by UV absorbance at 218 nm and quantified based on the area under the peak. The area under the peak for the initial peptide sample is treated as the standard for relative quantification in subsequent runs. At regular intervals (e.g., 1, 3, 7, 10, and 14 days), each peptide sample is surveyed and analyzed by HPLC as described above.
(§1) Stability against chemical degradation was assessed in various pH buffers by creating 0.2% AI solutions of pure, chemically synthesized peptide in deionized water, 0.25% weight to volume of Proxel® GXL (biocide), and 50 millimolar (mM) of nine buffers (separately) as follows: Citrate, pH 5.6, MES pH 6.0, MOPS pH 6.5, Citrate pH 7.2, EDDS pH 7.3, imidazole pH 7.5, EDTA pH 8, Phosphate pH 8, and TES pH 8.

[2] = Stability of material bulked with maltodextrin and buffer at room temperature; type: physicochemical; conditions: bulked with maltodextrin and phosphate buffer (pH 8.0) or citrate buffer (pH 7.2), 48 hours
Description: Samples of material P5, P5-21, and P5-25 bulked with maltodextrin and either phosphate buffer (pH 8.0) or citrate buffer (pH 7.2) were tested for stability at room temperature for 48 hours.

[3] = Solution (formulation) stability at 50° C. (HPLC); type: physicochemical; conditions: 0.25% Proxel GXL
Description: Peptides solutions were analyzed by HPLC for % loss of the peptide signal over time during incubation at 50° C., relative to the time 0 sample. Peptides were analyzed until the remaining peptide concentration decreased to 80% of original (20% degradation).

[4] = 50 mM buffer solutions pH 5.6-8.0, 0.25% Proxel GXL
Description: as §1

[5] = test system: Nicotiana tabacum cultivar xanthi plants; assay: Hypersensitive Response (HR) induction in tobacco leaves; type: in vivo; set-up: key to HR: Plants are considered HR-positive (“HR+”) if they exhibit wide-spread macroscopic cell death visible to the naked eye, accompanied by wilting and browning of the affected tissue within 48 hours; Plants are considered HR-negative (“HR−”) if they exhibit no discernible wilting or tissue death observable by naked eye; conditions: tobacco leaf infused with 500, 250, 125, 62.5, 31.25 μg/ml peptide solutions, scored over 48 hours
Source text: A property of a peptide to elicit a hypersensitive response, or not, upon infiltration or application of the peptide to plant tissues can be measured by applying the peptide in dry powder form or in solution form to a plant, particularly though not exclusively a plant leaf.
The minimal eliciting sequence derived from was developed based on the sequence of the hrex gene from Xanthomonas campestris pv. pelargonii. A number of truncated and mutated sequences were synthesized and tested for Hypersensitive Response induction (results in Table 4). HR in tobacco was tested as described in Wei, Science 257:85-88 (1992), which is hereby incorporated by reference in its entirety. Briefly, peptides were dissolved at a concentration of 500 μg/ml in aqueous solution. Four serial dilutions were performed with an equal volume of water, yielding peptide samples at 500, 250, 125, 62.5, 31.25 μg/ml peptide solutions. Nicotiana tabacum cultivar xanthi plants were used at 5-7 weeks old (preflowering). Leaves were lightly punctured with a toothpick in a middle leaf panel. Peptide solutions were then infused via needle-less syringe into the wound, filling the panel. Each peptide sample was infused into a leaf of 2 different plants. The leaves were observed and scored over the next 48 hours for withering and browning, lesions typical of programmed cell death. These studies had […] main goals: (1) determine the minimal sequence sufficient for HR elicitation (2) increase the solution stability of the peptides; (3) make disruptive mutations to verify the residues which are most important for HR elicitation; (4) make conservative mutations to identify the degree of specificity for particular amino acids.

[6] = test system: tobacco mosaic virus (TMV); assay: Induction of resistance to tobacco mosaic virus in tobacco; type: in vivo; conditions: % decline in TMV lesions vs UTC, spray 20 ug/ml; for Effectiveness Covered (%): covered leaf (systemic response); for Effectiveness Uncovered (%): uncovered leaf (local response)
Description: Peptides were tested for the induction of resistance to tobacco mosaic virus (TMV) in tobacco. Briefly, three tobacco plants at 6-8 weeks old were selected per group (samples and controls). The bottom-most leaf of the plant was covered and the plant was sprayed with a solution of water (untreated control—UTC), peptide, or Proact (positive control). The spray was applied until the leaves were fully wetted, indicated by liquid dripping from the leaves. The plants were then allowed to dry and the leaf covering was removed.
Three days post-treatment, the previously-covered leaf and a leaf on the opposite side of the plant were then lightly dusted with diatomaceous earth and 20 ul of a 1.7 ug/ml solution of purified tobacco mosaic virus was applied. The TMV solution was then spread across the leaf surface by lightly rubbing solution and the diatomaceous earth across the surface of the leaves. Two minutes after inoculation, the diatomaceous earth was rinsed off the leaves with water. 3 days after TMV inoculation, the leaves were scored based on the number of TMV lesions observed. The leaf was also scored for signs of the hypersensitive response, including yellowing and wilting of the affected leaves.
Effectiveness described in Table 6 refers to the % decline in TMV lesions on treated vs UTC plants. A reduction of TMV on covered leaves indicates a systemic immune response in the plant while reduction on uncovered leaves indicates a local response. Asterisks indicate that the P-value derived from a T-test was <0.05.

[7] = test system: corn; assay: Drought resistance in corn (greenhouse, spray); type: in vivo; conditions: corn under drought
Description: (§2) The effectiveness of peptide treatment in reducing drought stress was assessed in corn and soy. 3.5 inch pots were filled with Sunshine #1 soil (SunGro Horticulture), fertilized with a 20-10-20 mixture. The soil was soaked and drained overnight. Seeds (either corn or soy, manually inspected to ensure uniform seed size) were planted at a depth of 1 inch for germination. Plants were grown in a greenhouse under 16 hour light days at >70° F. and 8 hour dark nights at >65° F. Prior to drought conditions, the plants were well-watered.
When the plants reached the V1 stage, plants were culled to achieve a uniform height (abnormally large and small plants were removed). Plants were then randomly assigned to control (spray without peptide) or treatment (spray with peptide) groups and heights were measured. Peptide was made up in a solution of 0.2 ug/ml or 2 ug/ml in distilled water+0.01% Tween-20, and applied as a fine mist from a spray bottle until the solution drips from the leaves. After the peptide solutions were dried, the plants were again randomized in a randomized complete block design. Drought stress was initiated after the peptide treatment. This was caused by maintaining the water level at 25-50% of the maximum capacity for water (capacity was decided as the weight of the pot filled with saturated soil minus the weight of the filled pot prior to adding water).
(§3) The drought test phase ended after 2-3 weeks. At that time, the plant height was again measured and the growth rate was calculated as the difference between this and the previously-recorded height. The above-ground part portions of the plants were harvested and weighed. The above-ground portion was also dried in an oven at 70° C. for 72 hours and a dry weight was obtained. All calculations were compared with matched untreated control plants.

[8] = test system: soybean cyst nematodes; assay: Seed coating with peptides compared with chemical nematode agents in soy; type: in vivo, soy (Sheyenne variety)
Description: Additional experiments will be performed to examine the effectiveness of peptide treatment in suppressing the growth of soybean cyst nematodes using one or more of the other peptides in Tables 1 and 2, including, without limitation, P5-21 and P5-25. See Example 8 below.
The effectiveness of peptides was tested in soy (Sheyenne variety) and compared with current anti-nematode chemicals. Briefly, soy seeds were commercially coated with peptide at rates of 10, 30, or 90 ug peptide per seed or with chemical nematicides Avicta Complete, Clariva Complete, Poncho/Votivo, or Velum total. 3 soy seeds were planted in a mixture of topsoil and sand (pasteurized) in a 10 cm diameter pot and were inoculated with 1500 eggs per pot at planting. 10 replicate pots were used per experimental condition. After plants emerged from the soil, the plants were thinned to one plant per pot. Plants were harvested about 45 days after planting. The following measures were taken: (1) Fresh shoot and root weights; (2) Root condition graded 0-10 for the presence of disease; (3) Nematode cysts per plant; (4) Nematode eggs per plant; and optionally (5) Male nematodes. The following values were calculated: eggs per gram of root, cysts per gram of root, and eggs per cyst.

[9] = test system: soy; assay: Drought resistance in soy (greenhouse, spray); type: in vivo; conditions: soy under cyclic drought, 2.0 ug/ml
Description: as §2, with “in” for “in corn and”, “Seeds (soy,” for “Seeds (either corn or soy,”, “of half” for “of 1”
When the plants reached the growth stage when first trifoliate expanded, plants were culled to achieve a uniform height (abnormally large and small plants were removed). Plants were then randomly assigned to control (spray without peptide) or treatment (spray with peptide) groups and heights were measured. Peptide was made up in a solution of 0.2 ug/ml or 2 ug/ml in distilled water+0.04% Tween-20, and applied as a fine mist from a spray bottle until the solution drips from the leaves. After the peptide solutions were dried, the plants were again randomized in a randomized complete block design. Cyclic drought stress was initiated after the peptide treatment. Plants were subjected to at least three drought cycles of drought stress (3-5 days of withholding water and 1 day irrigated with saturating amount of water) before harvesting.
as §3, with “weighed to obtain fresh weight.” for “weighed.”, “to obtain” for “and a”, “weight.” for “weight was obtained.”

[10] = EDTA buffer pH 8.0, 50 mM, after 14 days

## SAGSEQQLDLLLMFIMMMLQQ [Peptide P5]
[1]
  stability in buffer solutions: generally poor stability
[1]; [10]
  peptide remaining: about 40%
[2]
  degradation (more than 5% loss): No significant degradation
[3]; 50 mM phosphate pH 8.0, 30% IPA, 5 mM DTPA, 0.09% AI
  Time before 20% degradation: 21 days

## SEEQLELLLAFIAAALQQEE [Peptide P5-21]
[1]; [10]
  peptide remaining: around 80%
[1]; all buffers pH>7.0 except EDTA, 50 mM, after 14 days
  peptide remaining (stability): > 90%
[2]
  degradation (more than 5% loss): No significant degradation
[3]; 50 mM citrate pH 7.2, 20% IPA, 0.09% AI
  Time before 20% degradation: 41 days

## QLELLLAFIAAALQQ [Peptide P5-5]
[4]
  solubility: Precipitation

## SEEQLDQLLLMFIMMMLQQEE [Peptide P5-46]
[5]
  HR: +
[6]
  Effectiveness Covered (%): 74* %
  Effectiveness Uncovered (%): 85* %
[7]; 2.0 ug/ml
  Dry Weight Increase (%): 3.71%
  Fresh Weight Increase (%): 9.05** %

## SAGSEQQEDLLLMFIMMMLQQ [Peptide P5-35]
[5]
  HR: Weak+
[7]; 2.0 ug/ml
  Dry Weight Increase (%): −6.57* %
  Fresh Weight Increase (%): −6.05* %

## SEEEEQLDQLLLAFIAAALQQ [Peptide P5-25]
[5]
  HR: -
[2]
  degradation (more than 5% loss): No significant degradation
[3]; 50 mM citrate pH 7.2, 0.09% AI
  Time before 20% degradation: 53 days
[6]
  Effectiveness Covered (%): 93* %
  Effectiveness Uncovered (%): 91* %
[7]
  drought resistance, experimental results: not statistically significant
[8]; 10 ug peptide per seed
  reduction in cysts per gram root: 92%
  reduction in eggs per gram root: 94%
[8]; 30 ug peptide per seed
  reduction in cysts per gram root: 82%
  reduction in eggs per gram root: 85%
[8]; 90 ug peptide per seed
  reduction in cysts per gram root: 91%
  reduction in eggs per gram root: 93%

## NQGISEKQQLDLLLAFIAAALQQ [Peptide P5-76]
[5]
  HR: Weak+
[7]; 0.2 ug/ml
  Dry Weight Increase (%): 5.33* %
  Fresh Weight Increase (%): 2.00%

## LDLLLAFIAAALEEEEEE [Peptide P5-9]
[1]
  stability in buffer solutions: better stability compared with P5
[1]; citrate pH 7.2, 50 mM, after 14 days
  peptide remaining: above 80%
[1]; phosphate pH 8.0, 50 mM, after 14 days
  peptide remaining: above 80%

## SEEQLDQLLLAFIAAALQEE [Peptide P5-27]
[5]
  HR: -
[3]; 50 mM imidazole pH 7.5, 50% IPA, 0.09% AI
  Time before 20% degradation: 50 days
[9]
  Dry Weight Increase (%): 2.04%
  Fresh Weight Increase (%): 4.07* %
